The values that follow come from patent US6340678B1, “4,4-difluoro-2,3,4,5-tetrahydro-1H-1-benzoazepine derivatives and drug compositions containing them” (Yamanouchi Pharmaceutical Co., Ltd., priority 1997, dated 2002).

Positions of bridges follow the written chain, without caps; N, C: chain ends. Non-standard residues stand in square brackets, D forms with d. Residues, ends and D or L forms follow the SMILES beside them. Orn = NCCC[C@H](N)C(=O)O; Mpa = O=C(O)CCS

The target of the assay is T1, oxytocin receptor (Rattus norvegicus, UniProt P70536).
T1 construct: uterus was excised, and a membrane sample was prepared therefrom; from tissue; host or cells: rat uterus (membrane preparation after diethylstilbestrol dipropionate treatment)
T1 sequence (P70536 1-388): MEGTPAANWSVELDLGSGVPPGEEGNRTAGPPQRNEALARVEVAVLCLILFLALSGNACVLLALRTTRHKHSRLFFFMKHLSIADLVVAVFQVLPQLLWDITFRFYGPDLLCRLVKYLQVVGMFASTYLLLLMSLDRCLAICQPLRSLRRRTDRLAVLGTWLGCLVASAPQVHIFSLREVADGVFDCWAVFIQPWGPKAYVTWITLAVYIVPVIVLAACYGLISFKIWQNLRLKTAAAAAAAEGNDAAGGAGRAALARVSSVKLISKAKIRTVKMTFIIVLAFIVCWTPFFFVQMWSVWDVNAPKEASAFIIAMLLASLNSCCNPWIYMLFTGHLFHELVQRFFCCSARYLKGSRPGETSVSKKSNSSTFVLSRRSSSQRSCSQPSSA
Briefly: Oxytocin receptor binding assay ([3H]-oxytocin, rat uterine membrane sample). The protocol: (Oxytocin Receptor Binding Assay)
Preparation of Uterine membrane was prepared by a method of Soroff, et al. (J. Biol. Chem., 249: 1376, 1974) while a binding assay was performed by a method of Pettibone, et al. (Endocrinology, 125: 217, 1989). Diethylstilbestrol dipropionate (0.3 mg/kg) was administered to a rat intraperitoneally, and after 18 to 24 hours, uterus was excised, and a membrane sample was prepared therefrom. [^3H]-Oxytocin (0.5 nM; specific activity=30 to 60 Ci/mmol), 50 μg of the membrane sample and a test drug (10^−8 to 10^−5 M) were incubated at room temperature for 60 minutes in 250 μl (total volume) of 50 mM Tris hydrochloride buffer (pH 7.4) containing 10 mM of magnesium chloride and 0.1% of bovine serum albumin (BSA). […] The glass filter was taken out, well dried and mixed with a cocktail for liquid scintillation, the amount of [^3H]-oxytocin bound to the sample was determined by a liquid scintillation counter, and the inhibition rate was calculated from the following equation: […]
wherein [L] is a concentration of the radioactive ligand; and Kd is a dissociation constant calculated from the scattered plots.
Then, a negative logarithmic value of Ki calculated hereinabove was taken as pKi. […]

Regarding `CCOc1ccc(C[C@H]2NC(=O)CCSSC[C@@H](C(=O)N3CCC[C@H]3C(=O)N[C@@H](CCCN)C(=O)NCC(N)=O)NC(=O)[C@H](CC(N)=O)NC(=O)[C@H]([C@@H](C)O)NC(=O)[C@H]([C@@H](C)CC)NC2=O)cc1` [atosiban] ([Mpa][dY](Et)ITNCP[Orn]G-NH2; disulfide 1-6), affinity was put at a Ki of 0.0117 µM.
